According to PMC7703437, “In Vitro Hepatic Metabolism of Curcumin Diethyl Disuccinate by Liver S9 from Different Animal Species” (Frontiers in Pharmacology, 2020):

How the values were obtained:
[1] = In vitro metabolism profiling of CDD in rat liver S9 (1 mg/ml); assay type: in vitro ADME, rat (Sprague–Dawley); conditions: Sprague-Dawley, liver S9; rat LS9 1 mg/ml; read-out: t 1/2 (CDD)
Protocol: (§1) The metabolism profiles of CDD were investigated against HLS9, MLS9, DLS9, and RLS9. A stock solution of CDD was prepared at 150 µM in 50% acetonitrile in water before use. The metabolism study was initiated by spiking 735 µl of preincubated LS9 with 15 µl of CDD stock solution, and the mixture was subsequently incubated at 37°C. The final concentrations of CDD and LS9 were 3 μM and 1 mg/ml, respectively. A 50-µl aliquot from the mixture was collected at 0.5, 1, 2, 3, 4, 5, 10, 15, 30, 45, 60, 90, and 120 min and immediately mixed with 100 µl of ice-cold acetonitrile containing 0.45 µM of internal standard DMC to terminate the metabolic reaction. […] The sample at the initial time point (0 min) was prepared as the other samples, except that heat-inactivated HLS9, MLS9, DLS9, and RLS9 (80°C for 20 min; 1 mg/ml protein) were used.
(§2) The UHPLC system consisted of an Agilent series 1290 quaternary pump with an online degasser, autosampler, column oven, and diode array detector. The mobile phase was composed of (A) 0.1% (v/v) formic acid in acetonitrile and (B) 0.1% (v/v) formic acid in water. Each solution was filtered through a nylon filter (pore size, 0.22 µm; MS® Membrane Filters; Membrane Solutions, United States) before use. The mobile phase flow rate was kept at 1.2 ml/min in a gradient mode using the following elution program: 0–3.0 min, initial A-B (40:60, v/v); 4.5–7.0 min, isocratic elution A-B [50:50, (v/v); 8.5–11.0 min, isocratic elution A-B (60:40, v/v); and 12.0–17.0 min, isocratic elution A-B (40:60, v/v)]. CDD, curcumin, and MSCUR in the supernatant were partitioned using a C8 column (4.6 mm × 50 mm, 2.7 µm; HALO, Advanced Materials Technology, United States) with reference to DMC. The detection wavelength was set at 400 nm (λ max(CDD) = 400 nm, λ max(curcumin) = 427 nm, λ max(MSCUR) = 418 nm, and λ max(DMC) = 421 nm). The column was maintained at 35°C throughout the run, and the supernatant injection volume was set at 20 µl.
(§3) The concentrations of CDD, curcumin, and MSCUR in the supernatant were determined from the standard plots, which were prepared by spiking individual working solutions of the compounds to heat-inactivated HLS9, MLS9, DLS9, and RLS9 ([Alcorn et al., 2007]; [Montoro-Garcia et al., 2009]; [Singh et al., 2010]). These working standards were extracted with 100 µl of ice-cold acetonitrile containing 0.45 µM of DMC and then 120 μl of the supernatant was diluted with 40 μl of water prior to the UHPLC analysis. The peak area ratios of CDD, curcumin, and MSCUR to the internal standard were computed against linear concentration ranges of 0.025–4.5 µM CDD, 0.025–4.5 µM curcumin, and 0.0125–0.75 µM MSCUR, respectively, with the coefficient of determination (r^2) values greater than 0.99.
(§4) The percent content of CDD and the metabolites formed upon its incubation with LS9, namely, curcumin and MSCUR, was plotted against incubation time.
(§5) The following equations were adopted to describe the changes in CDD and MSCUR content over time (t): A = A0e^−k1t (2) B= k1A0/k2−k1(e^−k1t−e^−k2t), (3) where A0 is the CDD concentration at time 0, k 1 is the degradation rate constant of CDD, and k 2 is the degradation rate constant of MSCUR. k 1 and k 2 were determined by using Eqs. 2 and 3, respectively, with nonlinear regression analysis using the SOLVER function of Microsoft Excel for Office 365 MSO (16.0.12527.20986) ([Brown, 2001]). The half-life (t 1/2) was calculated using Eq. 4: t1/2=0.693/k (4)
(§6) The in vitro intrinsic clearance (CLint,in vitro) of CDD and MSCUR in LS9 was calculated using Eq. 5: CLint, in vitro= k × [V]incubation(ml)/[P]incubation(mg protein), (5) where [V]incubation is the incubation volume in ml, and [P]incubation is the amount of LS9. […]

[2] = system: rat LS9 (RLS9; Sprague–Dawley); test: as above; assay type: in vitro ADME
Protocol: as §1, §2, §3, §4, §5, §6

[3] = In vitro metabolism profiling of CDD in human liver S9 (1 mg/ml); assay type: in vitro ADME; conditions: pooled liver S9; human LS9 1 mg/ml; read-out: t 1/2 (CDD)
Protocol: as §1, §2, §3, §4, §5, §6

[4] = system: human LS9 (HLS9; pooled); test: as above; assay type: in vitro ADME
Protocol: as §1, §2, §3, §4, §5, §6

CCOC(=O)CCC(=O)Oc1ccc(/C=C/C(=O)/C=C(O)/C=C/c2ccc(OC(=O)CCC(=O)OCC)c(OC)c2)cc1OC [CDD, curcumin diethyl disuccinate]
half-life at 3 µM [1]: 62.4 ± 10.8 s
CLint, in vitro(CDD) ([2]; rat LS9): 0.68 ± 0.13 ml min^−1 mg protein^−1
k 1 (CDD) ([2]; rat LS9 1 mg/ml, CDD 3 µM, 37°C): 0.68 ± 0.13 min⁻¹
CLint, in vivo(CDD) ([2]; rat, scaled from CLint,in vitro with physiologically based scaling factors): 197.51 ± 37.52 L/h/kg
CLint, in vivo total ([2]; rat, sum of CLint,in vivo(CDD) and CLint,in vivo(MSCUR)): 3,002.88 ± 180.63 L h^−1 kg^−1
CLH (predicted hepatic clearance) ([2]; rat, well-stirred model, QH 70 ml min^−1 kg^−1, fup 0.0594): 4.10 ± 5.77 × 10^–3 L h^−1 kg^−1
half-life [3]: 27.6 ± 3.6 s
CLint, in vitro(CDD) in HLS9 higher than in DLS9 ([4]; HLS9 vs DLS9): 1.8 fold
CLint, in vitro(CDD) in HLS9 higher than in MLS9 ([4]; HLS9 vs MLS9): 1.9 fold
CLint, in vitro(CDD) in HLS9 higher than in RLS9 ([4]; HLS9 vs RLS9): 2.2 fold
CLint, in vitro(CDD) ([4]; human LS9): 1.51 ± 0.22 ml min^−1 mg protein^−1
k 1 (CDD) ([4]; human LS9 1 mg/ml, CDD 3 µM, 37°C): 1.51 ± 0.22 min⁻¹
CLint, in vivo(CDD) ([4]; human, scaled from CLint,in vitro with physiologically based scaling factors): 282.18 ± 41.74 L/h/kg
CLint, in vivo total ([4]; human, sum of CLint,in vivo(CDD) and CLint,in vivo(MSCUR)): 2,533.38 ± 124.30 L h^−1 kg^−1
CLH (predicted hepatic clearance) ([4]; human, well-stirred model, QH 20 ml min^−1 kg^−1, fup 0.0594): 1.19 ± 4.61 × 10^–4 L h^−1 kg^−1
